Source: PMC11711195, “The non-nutritive sweetener rebaudioside a enhances phage infectivity” (Scientific Reports, 2025)

Molecular target: T1, gp31 (Klebsiella phage KP32, UniProt D1L2W4)
T1 construct: gene 31; recombinant from bacterial expression, His-tag (and MBP) removed by TEV protease
T1 sequence (D1L2W4 1-192): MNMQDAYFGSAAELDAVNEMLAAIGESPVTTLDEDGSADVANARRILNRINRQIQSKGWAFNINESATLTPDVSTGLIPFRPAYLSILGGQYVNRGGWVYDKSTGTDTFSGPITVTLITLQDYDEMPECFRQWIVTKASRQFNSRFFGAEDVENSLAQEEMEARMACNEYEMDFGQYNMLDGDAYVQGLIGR
Assay: RedStarch hydrolysis, absorbance […] nm
Assay type: biochemical
Settings: activator; RedStarch 2% w/v stock; 50 µL gp31 4.673 µM plus 50 µL rebA 14.019 µM; 20 °C, 72 h

Molecule `C=C1C[C@@]23CC[C@H]4[C@@](C)(CCC[C@@]4(C)C(=O)O[C@@H]4O[C@H](CO)[C@@H](O)[C@H](O)[C@H]4O)[C@@H]2CC[C@]1(O[C@@H]1O[C@H](CO)[C@@H](O)[C@H](O[C@@H]2O[C@H](CO)[C@@H](O)[C@H](O)[C@H]2O)[C@H]1O[C@@H]1O[C@H](CO)[C@@H](O)[C@H](O)[C@H]1O)C3` [rebA] has an increment of activity of 51.14%.
